Results: ChEMBL document CHEMBL4828707, “Discovery of phenyl-linked symmetric small molecules as inhibitors of the programmed cell death-1/programmed cell death-ligand 1 interaction” (Eur J Med Chem, 2021)

Tests used:
[1] = molecular target: T1, Programmed cell death protein 1/Programmed cell death 1 ligand 1 (Homo sapiens, UniProt Q9NZQ7); assay: (§1) Inhibition of Tag2-PD1/Tag1-PD-L1 (unknown origin) protein-protein interaction preincubated for 15 mins followed by addition of anti-Tag1-Eu3+ and anti-Tag2-XL665 measured after 2 hrs in dark by HTRF assay; assay type: protein-complex assay
[2] = Cytotoxicity against human PBMC at 3 uM measured after 48 hrs by CCK8 assay
[3] = Cytotoxicity against human HPDE6c7 cells at 2 to 10 uM measured after 48 hrs by CCK8 assay; assay type: cell-based; conditions: hpde6c7, 48 h, dose 2-10 µM
L02 = assay: Cytotoxicity against human HL7702 cells at 2 to 10 uM measured after 48 hrs by CCK8 assay; assay type: cell-based; conditions: l02, 48 h, dose 2-10 µM
[4] = molecular target: T1, Programmed cell death protein 1/Programmed cell death 1 ligand 1; assay: Inhibition of PD1/PDL1 protein-protein interaction in human Jurkat cells overexpressing PD1 co-cultured with human Hep3B cells expressing PDL1 protein assessed as increase of TCR-mediated luminiscence measured after 6 hrs by NFAT reporter assay; assay type: cell-based
hERG (KCNH2) = hERG (KCNH2) (Homo sapiens, UniProt Q12809); assay: Inhibition of human ERG expressed in HEK293 cells at 10 uM measured by whole cell patch-clamp assay; assay type: cell-based; conditions: HEK293 cells that express hERG
[5] = molecular target: T2, Programmed cell death protein 1/Programmed cell death 1 ligand 1 (Homo sapiens, UniProt Q15116+Q9NZQ7); conditions: time 6.0 hrs
[6] = molecular target: T2, Programmed cell death protein 1/Programmed cell death 1 ligand 1; assay: as §1; assay type: protein-complex assay

Sequence of hERG (KCNH2) (Q12809 whole entry): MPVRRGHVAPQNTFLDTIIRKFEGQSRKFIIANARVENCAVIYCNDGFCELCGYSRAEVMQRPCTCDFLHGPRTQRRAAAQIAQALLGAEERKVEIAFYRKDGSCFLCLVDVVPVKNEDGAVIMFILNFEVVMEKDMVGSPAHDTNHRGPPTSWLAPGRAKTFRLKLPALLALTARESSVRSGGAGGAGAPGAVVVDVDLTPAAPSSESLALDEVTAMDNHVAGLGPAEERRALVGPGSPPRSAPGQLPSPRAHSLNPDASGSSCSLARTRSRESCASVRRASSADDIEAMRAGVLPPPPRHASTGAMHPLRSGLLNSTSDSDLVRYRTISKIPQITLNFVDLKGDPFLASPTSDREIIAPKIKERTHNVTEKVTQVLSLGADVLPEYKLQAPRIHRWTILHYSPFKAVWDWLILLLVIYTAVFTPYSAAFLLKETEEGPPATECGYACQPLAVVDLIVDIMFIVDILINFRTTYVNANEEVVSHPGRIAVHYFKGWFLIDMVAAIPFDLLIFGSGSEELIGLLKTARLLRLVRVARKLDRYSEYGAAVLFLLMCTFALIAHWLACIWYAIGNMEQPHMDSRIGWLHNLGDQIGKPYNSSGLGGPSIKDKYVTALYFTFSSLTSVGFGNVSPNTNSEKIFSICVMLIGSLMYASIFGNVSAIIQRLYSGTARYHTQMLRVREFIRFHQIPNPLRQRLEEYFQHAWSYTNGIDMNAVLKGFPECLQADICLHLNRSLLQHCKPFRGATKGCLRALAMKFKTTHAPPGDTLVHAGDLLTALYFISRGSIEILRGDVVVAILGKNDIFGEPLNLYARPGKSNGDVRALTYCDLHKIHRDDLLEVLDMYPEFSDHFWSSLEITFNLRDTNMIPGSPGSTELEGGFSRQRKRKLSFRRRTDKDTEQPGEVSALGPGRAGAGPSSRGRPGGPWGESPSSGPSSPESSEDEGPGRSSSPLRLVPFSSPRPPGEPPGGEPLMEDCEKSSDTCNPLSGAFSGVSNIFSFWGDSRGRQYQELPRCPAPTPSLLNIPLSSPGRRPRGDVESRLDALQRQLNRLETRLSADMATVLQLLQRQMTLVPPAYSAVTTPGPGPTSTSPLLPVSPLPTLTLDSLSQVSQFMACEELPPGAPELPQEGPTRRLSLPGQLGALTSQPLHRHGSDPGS
T1 sequence (Q15116 whole entry): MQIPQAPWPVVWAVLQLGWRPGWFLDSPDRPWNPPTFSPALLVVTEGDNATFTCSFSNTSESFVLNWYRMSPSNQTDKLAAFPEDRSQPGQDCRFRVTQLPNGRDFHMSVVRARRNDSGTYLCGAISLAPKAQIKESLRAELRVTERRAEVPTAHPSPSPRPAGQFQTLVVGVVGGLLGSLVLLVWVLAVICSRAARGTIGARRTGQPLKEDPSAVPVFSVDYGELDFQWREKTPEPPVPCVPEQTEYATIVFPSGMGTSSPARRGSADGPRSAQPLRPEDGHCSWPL
T1 sequence (Q9NZQ7 whole entry): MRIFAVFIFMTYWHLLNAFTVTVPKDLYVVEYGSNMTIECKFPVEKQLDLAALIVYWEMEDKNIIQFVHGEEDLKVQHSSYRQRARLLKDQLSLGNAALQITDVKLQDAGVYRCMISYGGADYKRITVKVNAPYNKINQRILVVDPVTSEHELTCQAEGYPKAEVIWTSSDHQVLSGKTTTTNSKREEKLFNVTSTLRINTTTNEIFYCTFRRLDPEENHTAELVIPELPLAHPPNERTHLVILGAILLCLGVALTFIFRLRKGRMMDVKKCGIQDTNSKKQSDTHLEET
T2 sequence (Q15116 whole entry): as the sequence (Q15116 whole entry) above
T2 sequence (Q9NZQ7 whole entry): as the sequence (Q9NZQ7 whole entry) above

| SMILES | IC50 [1] [nM] | also measured |
| --- | --- | --- |
| COc1cc(-c2cccc(-c3cccc(-c4ccc(CNC(CO)CO)c(OC)c4)c3C)c2C)ccc1CO | 48.7 |  |
| Cc1c(-c2ccc3c(c2)OCCO3)cccc1-c1ccc(CNCCO)cn1 | 19.6 |  |
| Cc1c(NC(c2ccc(CNCCO)cc2)C(F)(F)F)cccc1-c1ccc2c(c1)OCCO2 (stereo not drawn) | > 1000 |  |
| Cc1c(-c2ccc3c(c2)OCCO3)cccc1N1CCN(c2cccc(CNCCO)n2)C1=O | > 1000 |  |
| Cc1c(C(=O)Nc2ccc(CNCCO)cc2)cccc1-c1ccc2c(c1)OCCO2 | > 1000 |  |
| COc1cc(-c2cccc(-c3cccc(-c4ccc(CNC5CCOCC5)c(OC)c4)c3C)c2C)ccc1CNC1CCOCC1 | 34.4 |  |
| Cc1c(-c2ccc(CNCCO)cn2)cccc1-c1cccc(-c2ccc(CNCCO)cn2)c1C | > 1000 |  |
| Cc1c(-c2ccc(CNCCO)cc2)cccc1-c1cccc(-c2ccc(CNCCO)cc2)c1C | 45.6 |  |
| Cc1c(NC(=O)c2ccc(CNCCO)cn2)cccc1-c1ccc2c(c1)OCCO2 | 5.04 |  |
| COc1cc(-c2cccc(-c3cccc(-c4ccc(CNCC5CCC(=O)N5)c(OC)c4)c3C)c2C)ccc1CNCC1CCC(=O)N1 (stereo not drawn) | 139 |  |
| Cc1c(-c2ccc3c(c2)OCCO3)cccc1N1Cc2cc(CNCCO)ccc2C1=O | > 1000 |  |
| O=C(c1ccc(CNCCO)cc1)n1ccc2c(-c3cccc4c3ccn4C(=O)c3ccc(CNCCO)cc3)cccc21 | 309 |  |
| COc1cc(-c2cccc(-c3cccc(-c4ccc(CNC5CCCC5O)c(OC)c4)c3C)c2C)ccc1CNC1CCCC1O (stereo not drawn) | 36.4 |  |
| Cc1c(Nc2cccc(-c3ccc(CNCCO)cc3)n2)cccc1-c1ccc2c(c1)OCCO2 | > 1000 |  |
| COc1cc(-c2cccc(-c3cccc(-c4ccc(CO)c(OC)c4)c3C)c2C)ccc1CO | 481 |  |
| Cc1c(-c2ccc3c(c2)OCCO3)cccc1-c1ccc(CNCCO)o1 | 191 |  |
| COc1cc(-c2cccc(-c3cccc(-c4ccc(CNCCO)c(OC)c4)c3C)c2C)ccc1CNCCO | 48.6 |  |
| COc1cc(-c2cccc(-c3cccc(-c4ccc(CNC(CO)C(=O)O)c(OC)c4)c3C)c2C)ccc1CNC(CO)C(=O)O (stereo not drawn) | 3.9 | Activity [2]: Non-Toxic; Activity [3]: Non-Toxic; Activity (L02): Non-Toxic; EC50 [4]: 775 nM; inhibition at 10 µM (hERG (KCNH2)): -0.67%; RLU [5]: 30600 |
| O=C(c1ccc(CNCCO)cc1)N1CCc2c(-c3ccc4c(c3)OCCO4)cccc21 | 150 |  |
| Cc1c(-c2ccc3c(c2)OCCO3)cccc1N(C)C(=O)c1ccc(CNCCO)cn1 | 764 |  |
| Cc1c(-c2ccc3c(c2)OCCO3)cccc1-c1ccc(CNCCO)s1 |  | IC50 [6]: Not Active |
| COc1cc(-c2cccc(-c3ccc4c(c3)OCCO4)c2C)ccc1CNCCO |  | IC50 [6]: Not Active; inhibition at 10 µM (hERG (KCNH2)): 4.71% |

| SMILES | IC50 [1] [nM] | also measured |
| --- | --- | --- |
| COc1cc(-c2cccc(-c3cccc(-c4ccc(CN5CCCCC5C(=O)O)c(OC)c4)c3C)c2C)ccc1CO (stereo not drawn) | 472 |  |
| Cc1c(-c2ccc3c(c2)OCCO3)cccc1N1CCN(c2ncc(CNCCO)s2)C1=O | > 1000 |  |
| Cc1c(Nc2cc(-c3ccc(CNCCO)cc3)ccn2)cccc1-c1ccc2c(c1)OCCO2 | > 1000 |  |
| O=C(c1ccc(CNCCO)cc1)N1CCCc2c(-c3ccc4c(c3)OCCO4)cccc21 | > 1000 |  |
| COc1cc(-c2cccc(-c3cccc(-c4ccc(CNC(CO)CO)c(OC)c4)c3C)c2C)ccc1CNC(CO)CO | > 1000 |  |
| Cc1c(NC(=O)c2ccc(CNCCO)nc2)cccc1-c1ccc2c(c1)OCCO2 | > 1000 |  |
| Cc1c(-c2ccc3c(c2)OCCO3)cccc1N1CCN(c2ccc(CNCCO)cc2)C1=O | > 1000 |  |
| Cc1c(NC(=O)c2ccc(CNCCO)cc2)cccc1-c1ccc2c(c1)OCCO2 | > 1000 |  |
| Cc1c(NS(=O)(=O)c2ccc(CNCCO)cc2)cccc1-c1ccc2c(c1)OCCO2 | > 1000 |  |
| COc1cc(-c2cccc(-c3cccc(-c4ccc(CNCC(O)C(=O)O)c(OC)c4)c3C)c2C)ccc1CNCC(O)C(=O)O (stereo not drawn) | 4.01 | Activity [2]: Non-Toxic; Activity [3]: Non-Toxic; Activity (L02): Non-Toxic; EC50 [4]: 376 nM; inhibition at 10 µM (hERG (KCNH2)): 7.72%; RLU [5]: 27000 |
| Cc1c(-c2ccc3c(c2)OC(=O)N(CCO)C3)cccc1-c1ccc2c(c1)OCCO2 |  | IC50 [6]: Not Active |
| Cc1c(-c2ccc3c(c2)OCCO3)cccc1-c1nnc(-c2ccc(CNCCO)cc2)o1 | > 1000 |  |
| O=C(c1ccc(CNCCO)cc1)N1CCc2c(-c3cccc4c3CCN4C(=O)c3ccc(CNCCO)cc3)cccc21 | 18.6 |  |
| COc1cc(-c2cccc(-c3cccc(-c4ccc(CN5CC(C(=O)O)C5)c(OC)c4)c3C)c2C)ccc1CN1CC(C(=O)O)C1 | 4.23 | Activity [2]: Non-Toxic; Activity [3]: Non-Toxic; Activity (L02): Non-Toxic; EC50 [4]: 104 nM; inhibition at 10 µM (hERG (KCNH2)): 3.93%; RLU [5]: 35800 |
| Cc1c(-c2ccc3c(c2)CCCN(CCO)C3)cccc1-c1ccc2c(c1)OCCO2 |  | IC50 [6]: Not Active |
| Cc1c(-c2ccc3c(c2)OCCO3)cccc1N1CCN(c2ccc(CNCCO)cn2)C1=O | > 1000 |  |
| Cc1c(-c2ccc3c(c2)NCC(=O)N(CCO)C3)cccc1-c1ccc2c(c1)OCCO2 |  | IC50 [6]: Not Active |
| Cc1c(-c2ccc(CNCCO)cc2)cccc1-c1ccc2c(c1)OCCO2 | 16.2 | inhibition at 10 µM (hERG (KCNH2)): 98% |
| Cc1c(-c2ccc3c(c2)OC(=O)N(CC(=O)O)C3)cccc1-c1ccc2c(c1)OCCO2 |  | IC50 [6]: Not Active |
| Cc1c(-c2ccc3c(c2)OCCO3)cccc1N1CCN(c2cccc(CNCCO)c2)C1=O | > 1000 |  |
| O=C(c1ccc(CNCCO)cc1)n1ccc2c(-c3ccc4c(c3)OCCO4)cccc21 | > 1000 |  |
